The assay in a line: Binding affinity towards Opioid receptor delta 1 was determined in guinea pig whole brain using [3H][4''-Cl-Phe4]-DPDPE as radioligand.

The results in this text go back to BindingDB's records for doi:10.1021/jm960078j (University of Arizona, 1996).

Usually IC50 stands for the concentration needed to halve the response being measured. A higher IC50 goes with lower potency.

In turn, `CCCC[C@@H](C(=O)N[C@@H](CC(=O)O)C(=O)N[C@@H](Cc1ccccc1)C(N)=O)N(C)C(=O)[C@H](Cc1c[nH]c2ccccc12)NC(=O)CNC(=O)[C@@H](Cc1ccccc1)NC(=O)[C@H](Cc1ccc(O)cc1)NC(=O)[C@@H](N)CC(=O)O` [(3S)-3-[(2S)-2-[(2S)-2-{2-[(2R)-2-[(2S)-2-[(3S)-3-amino-3-formamidopropanoic acid]-3-(4-hydroxyphenyl)propanamido]-3-phenylpropanamido]acetamido}-3-(1H-indol-3-yl)-N-methylpropanamido]hexanamido]-3-{[(1S)-1-carbamoyl-2-phenylethyl]carbamoyl}propanoic acid] showed an IC50 of 29 nM.
To `CCCC[C@@H](C(=O)N[C@@H](CC(=O)O)C(=O)N[C@@H](Cc1ccccc1)C(N)=O)N(C)C(=O)[C@@H](NC(=O)CNC(=O)[C@@H](Cc1ccccc1)NC(=O)[C@H](Cc1ccc(O)cc1)NC(=O)[C@@H](N)CC(=O)O)[C@@H](C)c1c[nH]c2ccccc12` belongs 140 nM; to `CCCC[C@@H](C(=O)N[C@@H](CC(=O)O)C(=O)N[C@@H](Cc1ccccc1)C(N)=O)N(C)C(=O)[C@H](NC(=O)CNC(=O)[C@@H](Cc1ccccc1)NC(=O)[C@H](Cc1ccc(O)cc1)NC(=O)[C@@H](N)CC(=O)O)[C@H](C)c1c[nH]c2ccccc12`, 820 nM; to `CCCC[C@@H](C(=O)N[C@@H](CC(=O)O)C(=O)N[C@@H](Cc1ccccc1)C(N)=O)N(C)C(=O)[C@H](NC(=O)CNC(=O)[C@@H](Cc1ccccc1)NC(=O)[C@H](Cc1ccc(O)cc1)NC(=O)[C@@H](N)CC(=O)O)[C@@H](C)c1c[nH]c2ccccc12`, 1050 nM.
